Tested on: cells derived from either Ku70 or Ku80 knock-out mice
Experiment: Survival experiments with Ku-deficient cells exposed to chemotherapeutic agents
Assay type: cell-based, mouse
Settings: FIG. 12

COc1cccc2c1C(=O)c1c(O)c3c(c(O)c1C2=O)C[C@@](O)(C(=O)CO)C[C@@H]3O[C@H]1C[C@H](N)[C@H](O)[C@H](C)O1 [adriamycin]
sensitivity of Ku70 or Ku80 knock-out mouse cells to the agent (survival): very sensitive

bleomycin
sensitivity of Ku70 or Ku80 knock-out mouse cells to the agent (survival): very sensitive

From patent US7592319B2, “Uses of DNA-PK” (Sloan-Kettering Institute for Cancer Research, priority 1998, dated 2009)
